In patent US12252457B2, “Compositions and methods for reducing tactile dysfunction, anxiety, and social impairment” (President and Fellows of Harvard College, priority 2018, dated 2025):
“Also recorded” adds a separate entry of the source. Structures can show the parent of a compound that is named as a salt.

System: mutant mice (Advillin^Cre; Mecp2^f/y, Advillin^Cre; Shank3^f/f, Advillin^Cre; Gabrb3^f/+, Advillin^Cre; Gabrb3^f/f)
Assay: Tactile prepulse inhibition (PPI) assay and response to air puff alone, acute Compound 5
Type: in vivo, mouse
Settings: 2 mg/kg i.p.
Experimental: FIG. 1 is a graph showing percent inhibition of an acoustic startle response (PPI) to a 125-dB noise (pulse), when the startle noise was preceded by a light air puff (prepulse, 0.9 PSI, 50 ms) at an interstimulus interval of 250 ms. Values are expressed as percent of control littermates' performance. Experiments were performed in mutant mice (Advillin^Cre; Mecp2^f/y, Advillin^Cre; Shank3^f/f) and control littermates, 30 minutes after an intraperitoneal injection of either saline (vehicle) the peripherally restricted Compound 5 (2 mg/kg). Two-way ANOVA, with post-hoc Holm-Sidak's test, *, p<0.05, when comparing mutants to control within same treatment; I, p<0.05, or p<0.10, when comparing the same genotype across different treatments.
FIG. 2 is a graph showing response to a light air puff stimulus alone (0.9 PSI, 50 ms). Responses are expressed as a percent of startle response to a 125-B noise. Experiments were performed in mutant mice (Advillin^Cre; Mecp2^f/y, Advillin^Cre; Shank3^f/f) and control littermates, 30 minutes after an intraperitoneal injection of either saline (vehicle) the peripherally restricted Compound 5 (2 mg/kg). Two-way ANOVA, with post-hoc Holm-Sidak's test, *, p<0.05, when comparing mutants to control within same treatment; I, p<0.05, when comparing the same genotype across different treatments.
FIG. 3 is a graph showing magnitude of startle response to a 125-dB noise. Experiments were performed in mutant mice (Advillin^Cre; Mecp2^f/y, Advillin^Cre; Shank3^f/f) and control littermates, 30 minutes after an intraperitoneal injection of either saline (vehicle) the peripherally restricted Compound 5 (2 mg/kg).
FIG. 4 is a graph showing the percent inhibition of an acoustic startle response (PPI) to a 125-dB noise (pulse), when the startle noise was preceded by a light air puff (prepulse, 0.9 PSI, 50 ms) at an interstimulus interval of 250 ms. Values were expressed as percent of control littermates' performance. Experiments were performed in mutant mice (Advillin^Cre; Mecp2^f/y, Advillin^Cre; Shank3^f/f, Advillin^Cre; Gabrb^3f/+, Advillin^Cre; Gabrb3^f/f) and control littermates, 30 minutes after an intraperitoneal injection of either saline (vehicle) or Compound 5 at 2 mg/kg. […] Two-way ANOVA, with post-hoc Holm-Sidak's test, *, p<0.05, when comparing mutants to control within same treatment; t, p<0.05, or #, p<0.10, when comparing the same genotype across different treatments.
FIG. 5 is a graph showing the response to a light air puff stimulus alone (0.9 PSI, 50 ms). Responses were expressed as a percent of startle response to a 125-B noise. Experiments were performed in mutant mice (Advillin^Cre; Mecp2^f/y, Advillin^Cre; Shank3^f/f, Advillin^Cre; Gabrb3^f/+, Advillin^Cre; Gabrb3^f/f) and control littermates, 30 minutes after an intraperitoneal injection of either saline (vehicle) or Compound 5 at 2 mg/kg. […] Two-way ANOVA, with post-hoc Holm-Sidak's test, *, p<0.05, when comparing mutants to control within same treatment; f, p<0.05, when comparing the same genotype across different treatments. […]
FIGS. 1 and 4 show the percent inhibition of an acoustic startle response (PPI) to a 125-dB noise (pulse), when the startle noise was preceded by a light aft puff (prepulse, 0.9 PSI, 50 ms) at an interstimulus interval of 250 ms. Values were expressed as percent of control littermates' performance. […]

[1] = Advillin^Cre, Mecp2^f/y, Shank3^f/f, Gabrb3^f/+ mice, 30 min, vs saline

**Q.** What does the source list for NC1C=C(C(=O)O)CCC1 (centres unmarked) [Compound 5, 3-aminocyclohex-1-enecarboxylic acid hydrochloride]?
**A.** tactile (hairy skin) sensitivity in mice with complete loss of GABA-A receptors on peripheral somatosensory neurons (Advillin^Cre, Gabrb3^f/f mice, 30 min, hydrochloride, 2 mg/kg): do not show a reduction in tactile sensitivity; also recorded: did not show any improvements in hairy skin sensitivity; responsivity to a light air puff stimulus alone (0.9 PSI, 50 ms) [1]: reduced responsivity to an air puff stimulus; tactile PPI performance [1]: reduced tactile PPI performance; hairy skin hypersensitivity (tactile PPI assay and response to air puff stimulus alone) (Mecp2, Shank3 and Gabrb3 heterozygous conditional mutant mice, 30 minutes after injection, hydrochloride, 2 mg/kg): reduces hairy skin over-reactivity; also recorded: significantly reduced hairy skin hypersensitivity; also recorded: reduces hairy skin hypersensitivity; motor behaviors or sedation, average startle amplitude elicited by a 125-dB noise (mutant mice and control littermates, 30 min, hydrochloride, 2 mg/kg): did not have negative effects on motor behaviors or sedation; also recorded: no significant differences between any genotypes or treatment groups
